Experimental findings from ChEMBL document CHEMBL1147209, “Relationship between quantum-chemical descriptors of proton dissociation and experimental acidity constants of various hydroxylated coumarins. Identification of the biologically active species for xanthine oxidase inhibition” (Eur J Med Chem, 2007) are described below.

Sequence of Xanthine dehydrogenase/oxidase (P47989 whole entry): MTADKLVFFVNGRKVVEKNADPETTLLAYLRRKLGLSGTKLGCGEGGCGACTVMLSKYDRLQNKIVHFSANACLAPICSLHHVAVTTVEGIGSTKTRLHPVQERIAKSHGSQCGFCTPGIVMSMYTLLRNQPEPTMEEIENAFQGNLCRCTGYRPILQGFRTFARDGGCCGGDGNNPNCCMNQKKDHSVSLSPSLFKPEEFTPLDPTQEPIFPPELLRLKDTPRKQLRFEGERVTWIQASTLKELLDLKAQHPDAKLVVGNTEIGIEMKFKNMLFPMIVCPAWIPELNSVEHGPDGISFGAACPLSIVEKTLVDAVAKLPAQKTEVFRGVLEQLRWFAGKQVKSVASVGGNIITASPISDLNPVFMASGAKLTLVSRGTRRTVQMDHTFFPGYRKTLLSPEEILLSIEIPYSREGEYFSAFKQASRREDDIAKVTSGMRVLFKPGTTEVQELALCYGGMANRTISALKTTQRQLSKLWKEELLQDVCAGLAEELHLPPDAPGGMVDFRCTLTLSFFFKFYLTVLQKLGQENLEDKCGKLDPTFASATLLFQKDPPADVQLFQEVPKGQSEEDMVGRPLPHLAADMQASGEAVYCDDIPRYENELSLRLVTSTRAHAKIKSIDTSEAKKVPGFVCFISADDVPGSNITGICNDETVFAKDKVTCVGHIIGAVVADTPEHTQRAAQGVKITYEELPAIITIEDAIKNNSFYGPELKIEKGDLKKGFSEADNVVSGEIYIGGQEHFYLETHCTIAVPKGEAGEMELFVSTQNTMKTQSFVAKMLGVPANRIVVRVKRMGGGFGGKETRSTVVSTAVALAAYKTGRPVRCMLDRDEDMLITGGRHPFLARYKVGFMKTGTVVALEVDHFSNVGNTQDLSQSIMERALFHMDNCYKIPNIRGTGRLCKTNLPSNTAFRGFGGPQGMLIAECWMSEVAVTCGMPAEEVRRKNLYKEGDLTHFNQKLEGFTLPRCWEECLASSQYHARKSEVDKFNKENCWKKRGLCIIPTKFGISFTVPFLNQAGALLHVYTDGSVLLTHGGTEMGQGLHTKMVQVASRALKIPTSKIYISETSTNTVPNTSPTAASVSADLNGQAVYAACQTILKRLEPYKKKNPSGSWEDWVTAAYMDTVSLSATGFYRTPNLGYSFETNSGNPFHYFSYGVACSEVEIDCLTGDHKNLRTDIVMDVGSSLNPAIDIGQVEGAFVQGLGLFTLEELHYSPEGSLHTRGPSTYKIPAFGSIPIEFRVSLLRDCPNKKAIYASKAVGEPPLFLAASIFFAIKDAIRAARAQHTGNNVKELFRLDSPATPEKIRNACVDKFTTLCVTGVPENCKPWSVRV

This data set has as its target Xanthine dehydrogenase/oxidase (Homo sapiens, UniProt P47989). The experiment in a line: Inhibition of xanthine oxidase.
For orientation: IC50 means the midpoint of a concentration-inhibition curve. A high value points to a need for much substance. Turning to `Cc1cc(=O)oc2cc(O)c(O)cc12` [4-METHYLESCULETIN], the IC50 amounted to 246 µM.
On to `O=c1ccc2ccc(O)c(O)c2o1` [DAPHNETIN], for which the midpoint of inhibition, the IC50, lay at 390 µM.
`COc1cc2oc(=O)ccc2cc1O` [ISOSCOPOLETIN] gave an IC50 of 138 µM.
As for `COc1cc2ccc(=O)oc2cc1O` [SCOPOLETIN], the Activity result is “Not Active”.
For the molecule `O=c1ccc2cc(O)c(O)cc2o1` [ESCULETIN], half-maximal inhibition (IC50) required 8.2 µM.
For `O=c1ccc2ccc(O)cc2o1` [UMBELLIFERONE], it took 236 µM to reach half-maximal inhibition (IC50).
In the case of `O=c1oc2ccccc2cc1O` [3-HYDROXYCOUMARIN], half-maximal inhibition (IC50) was put at 131 µM.
Molecule `O=c1cc(O)c2ccccc2o1` [4-HYDROXYCOUMARINS] gave an IC50 of 195 µM.
